In US7705119B1, “Compositions and methods useful for treating circulatory and hypovolemic shock” (University of Kentucky Research Foundation, priority 2007, dated 2010):
“Also recorded” adds a separate entry of the source. Square brackets hold non-standard residues; d marks the D form. Peptide text beside a SMILES is read from it.

Columns and labels:
[1] = tested on: Sprague-Dawley rats; experiment: 30 minute inhibitor pre-treatment before 5.5 mg/kg Delt-E post hemorrhage injection; type: in vivo, rat; conditions: for Maximum HR in BPM ± S.E. / Maximum MAP in mmHg ± S.E. / Survival Time in minutes ± S.E.: then 5.5 mg/kg Delt-E post hemorrhage
Text: The hemorrhagic shock model used was a volume-controlled model similar to that of Summers et al. Acad Emerg Med. 10:587-93 (2003). Forty-six male Sprague-Dawley rats (about 341-411 grams) were acclimated to a laboratory environment for a week. In dwelling heparinized PE 10 catheters were placed in the femoral artery and the femoral vein of anesthetized rats. The two catheters were combined and exited suprascapularly, tied in place with braided silk, and covered with a piece of hypoallergenic mesh to prevent kinking. Rats were then placed in recovery cages for 24 hr, allowed access to food and water, and allowed unrestricted access to both catheters. The femoral artery catheter was used for volume-controlled hemorrhage and blood pressure measurements and the femoral vein catheter was used for Delt-E infusion. Each selected animal was randomly assigned 1 of […] post hemorrhage treat groups: 1 mL/100 g saline control (n=6), 2.85 mg/kg Delt-E (n=6), 4.2 mg/kg Delt-E (n=6), 5.5 mg/kg Delt-E (n=6), and 14 mg/kg Delt-E (n=6). Animals were also selected and randomly assigned to 1 of 4, 30-minute pre-treatment inhibitor groups: Naltriben Methane Sulfonate (NTB) (n=4), Naltrexone (n=4), Glibenclamide (n=4), and 7-Dehydrobenzylidine naltrexone (BNTX) (n=4) followed by a 5.5 mg/kg injection of Delt-E.
Opioid Inhibitors: The opioid inhibitors (naltrexone, naltriben methane sulfonate (NTB) and 7 Dehydrobenzylidine naltrexone (BNTX) and Glibenclamide were administered 30 minutes prior to hemorrhage. MAP and HR were recorded continuously before hemorrhage to ensure no adverse affects on MAP or HR occurred as a result of the pre-injection. At the end of 30 minutes, volume-controlled hemorrhage was induced followed by a post hemorrhage injection of 5.5 mg/kg Delt-E, the optimal dose found to increase hemodynamic stability. Naltrexone (10 mg/kg, Sigma-Aldrich), NTB (1 mg/kg, Sigma-Aldrich), and BNTX (1 mg/kg, Tocris Bioscience) were used as 30 minute pre-injection opioid receptor antagonists. Glibenclamide (10 mg/kg, Sigma Aldrich) was used as a KATP channel blocker.
Data Analysis: Statistical analysis was preformed using SPSS software with P value <0.05 being considered significant. The survival, MAP, HR and lactic acid values were analyzed using repeated measures analysis of variance (ANOVA) between groups to identify differences between groups. To evaluate differences between means, the ANOVA with post hoc least square differences were used (LSD analysis).

[2] = tested on: KATP channels; conditions: Wild et al. 1991; cited from earlier work
[3] = tested on: Sprague-Dawley rats; experiment: Post hemorrhage Delt-E infusion, volume-controlled hemorrhagic shock model without fluid resuscitation; type: in vivo, rat; conditions: 14.0 mg/kg i.v. post hemorrhage
Text: A murine hemorrhagic shock model was used to evaluate the effects of administration of Deltorphin-E (Delt-E), without concomitant fluid resuscitation, on hemodynamic status, plasma lactate levels, and survival rates.
The hemorrhagic shock model used was a volume-controlled model similar to that of Summers et al. Acad Emerg Med. 10:587-93 (2003). Forty-six male Sprague-Dawley rats (about 341-411 grams) were acclimated to a laboratory environment for a week. In dwelling heparinized PE 10 catheters were placed in the femoral artery and the femoral vein of anesthetized rats. […]
Treatment: Twenty-four hours after catheter placement, test rats (n=24) were infused in the femoral vein with either 2.85, 4.2, 5.5 or 14 mg/kg of Delt-E (Tyr-D-Ala-Phe-Ala-Ile-Gly-Asp-Phe-Ser-Ile-NH2; SEQ ID NO: 1) dissolved in 1.0 ml Lactated Ringers (LR) solution pH 7.4. […] Prior to hemorrhage MAP and HR were recorded to establish baseline levels. […] After the final mL of blood was removed the various venous catheter treatment injections were administered, MAP and HR were recorded continuously for the duration of survival or up to 6 hours.
Biomarker protocols: Survival time was determined by the post hemorrhage time after injection until death, or a predetermined 360 minute survival interval. […] Pulse pressure was determined by the difference (mmHg) between the systolic and diastolic pressure during a single cardiac cycle. […]

[4] = inhibitor 1 mg/kg 30 min prior to hemorrhage
[5] = inhibitor 10 mg/kg 30 min prior to hemorrhage

Compound	blockade of post hemorrhage hemodynamic recovery / survival benefits of 5.5 mg/kg Delt-E [1, 4]	Maximum HR in BPM ± S.E. [1, 4] [BPM]	Maximum MAP in mmHg ± S.E. [1, 4] [mmHg]	Survival Time in minutes ± S.E. [1, 4] [min]	blockade of post hemorrhage hemodynamic recovery / survival benefits of 5.5 mg/kg Delt-E [1, 5]	Maximum HR in BPM ± S.E. [1, 5] [BPM]	Maximum MAP in mmHg ± S.E. [1, 5] [mmHg]	Survival Time in minutes ± S.E. [1, 5] [min]	further results
Oc1ccc2c3c1O[C@H]1c4oc5ccccc5c4C[C@@]4(O)[C@@H](C2)N(CC2CC2)CC[C@]314 [NTB, Naltriben Methane Sulfonate]	blocked	423 ± 68	37 ± 13	58 ± 12					
COc1ccc(Cl)cc1C(=O)NCCc1ccc(S(=O)(=O)NC(=O)NC2CCCCC2)cc1 [Glibenclamide]					did not alter the survival advantage; also recorded: not blocked	393 ± 43	56 ± 10	347 ± 15	
O=C1/C(=C/c2ccccc2)C[C@@]2(O)[C@H]3Cc4ccc(O)c5c4[C@@]2(CCN3CC2CC2)[C@H]1O5 [BNTX, 7-Dehydrobenzylidine naltrexone]	did not block	400 ± 77	55 ± 12	356 ± 3					
O=C1CC[C@@]2(O)[C@H]3Cc4ccc(O)c5c4[C@@]2(CCN3CC2CC2)[C@H]1O5 [Naltrexone]					partially blocked	419 ± 75	49 ± 8	95 ± 11	
DPDPE									cardioprotective effect in the presence of Glibenclamide [2]: could be negated by Glibenclamide
CC[C@H](C)[C@H](NC(=O)[C@H](CO)NC(=O)[C@H](Cc1ccccc1)NC(=O)[C@H](CC(=O)O)NC(=O)CNC(=O)[C@@H](NC(=O)[C@H](C)NC(=O)[C@H](Cc1ccccc1)NC(=O)[C@@H](C)NC(=O)[C@@H](N)Cc1ccc(O)cc1)[C@@H](C)CC)C(N)=O [Delt-E, Tyr-(D-Ala)-Phe-Ala-Ile-Gly-Asp-Phe-Ser-Ile-NH2] (H-Y[dA]FAIGDFSI-NH2)									Toxicity of dose [3]: toxic
